Test results published in PubChem BioAssay (NCI).
Several values for one entry are separate records, joined by “and”; a condition that tells them apart may be missing. Equal entries are not always repeated.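 Where inhibition never reached the appropriate level, the endpoint shown equals the highest concentration tested. Otherwise, values were interpolated linearly from a five-concentration, 48-hour dose response in 96-well plates. Abbreviation: GI50, concentration required for 50% inhibition of growth. TGI: concentration producing complete growth inhibition.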

How the values were obtained:
Experiment in all cases: DTP human tumour cell line panel, 48 h
786-0 renal = tested on: 786-0 renal
HS 578T breast = tested on: HS 578T breast
M14 melanoma = tested on: M14 melanoma
HCT-15 colon = tested on: HCT-15 colon
SK-MEL-5 melanoma = tested on: SK-MEL-5 melanoma
CCRF-CEM leukemia = tested on: CCRF-CEM leukemia
OVCAR-3 ovarian = tested on: OVCAR-3 ovarian
SN12C renal = tested on: SN12C renal
SF-295 CNS = tested on: SF-295 CNS
ACHN renal = tested on: ACHN renal

Row | Structure (SMILES) | GI50 (786-0 renal) | TGI (786-0 renal) | GI50 (HS 578T breast) | TGI (HS 578T breast) | GI50 (M14 melanoma) | TGI (M14 melanoma) | GI50 (HCT-15 colon) | TGI (HCT-15 colon) | GI50 (SK-MEL-5 melanoma) | TGI (SK-MEL-5 melanoma) | GI50 (CCRF-CEM leukemia) | TGI (CCRF-CEM leukemia) | GI50 (OVCAR-3 ovarian) | TGI (OVCAR-3 ovarian) | GI50 (SN12C renal) | TGI (SN12C renal) | GI50 (SF-295 CNS) | TGI (SF-295 CNS) | GI50 (ACHN renal) | TGI (ACHN renal)
1 | CC1=NN(c2nc(N)nc(/C=C\c3ccccc3)n2)C(C)(C)C1 | 15 µM | 29.3 µM | 13.5 µM | 77.5 µM | 9.76 µM | 23.7 µM | 3.27 µM | 44.7 µM | 16 µM | 32.3 µM | 2.99 µM | 34.7 µM | 3.73 µM | 16.1 µM | 13.1 µM | 26.6 µM | 11.7 µM | 30.5 µM | 9.46 µM | 28.4 µM
2 | COc1cc2c(cc1OC)C(SC)C(=O)N(Cc1cccc(OC)c1OC)CC2 (centres undefined) | – | > 100 µM | – | > 24.6 µM | – | 26.5 µM | – | > 74 µM | – | 9.52 µM | – | > 55.6 µM | – | 7.03 µM | – | > 100 µM | – | > 43.6 µM | – | > 81.6 µM
3 | Oc1c(I)cc(Cl)c2cccnc12 | 3.28 µM and 3.86 µM | 12.6 µM and 17.6 µM | 7.78 µM and 8.12 µM | > 100 µM and 57.7 µM | 2.08 µM | 4.37 µM | 5.48 µM and 3.82 µM | > 100 µM and 38.5 µM | 1.83 µM and 4.12 µM | 4.23 µM and 16.1 µM | 2.81 µM and 1.89 µM | 9.89 µM and 4.71 µM | 5.62 µM and 21.3 µM | 65.1 µM and 61.5 µM | 3.27 µM and 4.82 µM | > 100 µM and 26.3 µM | 2.62 µM and 22.2 µM | – | 3.52 µM and 3.5 µM | 21.7 µM and 23.7 µM
4 | Oc1ccc(-c2[nH]c3ccccc3c2-c2nc3ccccc3o2)cc1 | 4.4 µM | 15.2 µM | 2.47 µM | 18.4 µM | 3.26 µM | 13.8 µM | 2.97 µM | 13.1 µM | 2.16 µM | 7.8 µM | 4.91 µM | 46.2 µM | 3.05 µM | 9.8 µM | 4.88 µM | 18.5 µM | 4.48 µM | 19.4 µM | 3.58 µM | 14.9 µM
